Two molecules from patent US4745124A, “Orally effective anti-hypertensive agents” (priority 1983, dated 1988) can be followed below.

Where a name gives a salt, the structure may show the parent alone. Read-outs that look alike come from different tables or passages of the source.

Assay [1] relates to pressor effects of angiotensin I. Briefly: intravenous effectiveness: blood pressure response to angiotensin I in anesthetized rats. The following applies: i.v. 1 μmole/Kg, Ex. 247. The assay is classed as in vivo, rat. The procedure: Anesthetized rats were prepared as described in Example 228. After the responsiveness of a given rat to angiotensin I was established, the named compound at 2 μmol/kg, in a volume of 15 μl of 0.01N sodium bicarbonate, was injected via a femoral vein. At timed intervals, the effects of angiotensin I, 400 ng/kg, on mean arterial blood pressure were tested. Results are shown below:
Anesthetized rats were prepared as described in Example 231. After the responsiveness of a given rat to angiotensin I was established, the named compound, at 2 μmol/kg, in a volume of 15 μl of 0.01N sodium bicarbonate, was injected via a femoral vein. At timed intervals, the effects of angiotensin I, 400 ng/kg, on mean arterial blood pressure were tested. Results are shown below:
Anesthetized rats were prepared as described in Example 239. The animals were administered the named compound via a femoral vein in 15 μl of 0.01N sodium bicarbonate, after the control response to 400 ng/kg of angiotensin I was measured. […] The time required for recovery of one half of the lost responsiveness to angiotensin I, following injection of the named compound, was designated t1/2. […] Results are shown for two dose levels:
Anesthetized rats were prepared as described in Example 242. The named compound was administered intravenously via a femoral vein, at the stated dose, in 15 μl of 0.01N sodium bicarbonate. The response to intravenous administration was a rapid decrease in responsiveness to Angtiotensin I, 400 ng/kg, followed by a gradual recovery to the pretreatment level of responsiveness. The time required for recovery of one half the lost responsiveness to angiotensin I, following injection of the named compound, is designated t1/2. […] Results are shown for the three dose levels:
The intravenous effectiveness of the named compound was examined by following the procedure described in Example 244 except that 1 μmole/kg of the drug was given intravenously. The results are shown below:
The intravenous effectiveness of the named compound was examined by following the procedure described in Example 246 except that 1 μmole/Kg of the drug was given intravenously.

Assay [2] shares this test system. The experiment in a line: oral effectiveness: blood pressure response to angiotensin I in anesthetized rats. It is filed as in vivo, rat. Conditions: Rattus norvegicus, oral 10 μmol/kg, Ex. 246, read-out: Blood Pressure Response to 400 ng/kg of Angiotensin I. The procedure:
Rats (210-290 g body weight) were fasted overnight and then anesthetized with intraperitoneal pentobarbital, 50-60 mg/kg. Tracheostomy was performed and the animals were ventilated mechanically. A cannula was inserted into a femoral vein for injection of angiotensin I or II, and a second cannula was inserted into a common carotid artery for direct measurement of arterial blood pressure. Heparin, 1,000 units, was injected via the femoral vein to prevent coagulation. Blood pressure was measured with a pressure transducer connected to a polygraph. The rats were injected with 80 ng of angiotensin I or angiotensin II in 20 μl of 0.9 g % NaCl; an amount of antiotensin I or II sufficient to raise mean arterial blood pressure by 27-40 mm Hg. After the responsiveness of a given rat to angiotensins I and II was established, compound (I), at 2 or 5 mg/kg (drug dissolved in 0.5 ml of H2 O plus 10 μl of 1N NaHCO3), was given via a stomach tube. At timed intervals, the effects of 80 ng of angiotensin I or angiotensin II on mean arterial blood pressure were tested.
Rats were prepared as described in Example 222. Compound (II) [N-benzoyl-L-phenylalanylthiopropanoyl)-L-proline] was given orally, via a stomach tube, at a dose of 12 mg/kg or 20 mg/kg. Compound (II) was dissolved in 0.5 ml of H2 O plus 10 μl of 1N NaHCO3. In all other respects, the experimental preparations were exactly as described in Example 222.
Rats (210-290 g body weight) were fasted overnight and then anesthetized with intraperitoneal pentobarbital, 50-60 mg/kg. Tracheostomy was performed and the animals were ventilated mechanically. A cannula was inserted into a femoral vein for injection of angiotensin I or II, and a second cannula was inserted into a common carotid artery for direct measurement of arterial blood pressure. Heparin, 1,000 units, was injected via the femoral vein to prevent coagulation. Blood pressure was measured with a pressure transducer connected to a polygraph. The rats were injected with 160 ng of angiotensin I or 80 ng of angiotensin II in 20 μl of 0.9 g % NaCl; an amount of angiotensin I or II sufficient to raise mean arterial blood pressure by 27-40 mm Hg. After the responsiveness of a given rat to angiotensins I and II was established, compound (B) at 10 mg (drug dissolved in 0.5 ml of H2 O plus 10 μl of 1N NaHCO3), was given via a stomach tube. At timed intervals, the effects of 160 ng of angiotensin I or 80 ng of angiotensin II on mean arterial blood pressure were tested. Results are shown below:
Rats (210-290 g body weight) were fasted overnight and then anesthetized with intraperitoneal pentobarbital, 50-60 mg/kg. Tracheostomy was performed and the animals were ventilated mechanically. A cannula was inserted into a femoral vein for injection of angiotensin I, and a second cannula was inserted into a common carotid artery for direct measurement of arterial blood pressure. Heparin, 1,000 units, was injected via the femoral vein to prevent coagulation. Blood pressure was measured with a pressure transducer connected to a polygraph. The rats were injected with 400 ng/kg of angiotensin I in 20 μl of 0.9 g % NaCl; an amount of angiotensin I sufficient to raise mean arterial blood pressure by 39 mm Hg. After the responsiveness of a given rat to angiotensin I was established, the named compound at 17 μmol/kg (drug dissolved in 0.15 ml of H2 O plus 10 μl of 1N NaHCO3), was given via a stomach tube. At timed intervals, the effects of 400 ng/kg of angiotensin I on mean arterial blood pressure were tested. Results are shown below:
Rats (190-290 g body weight) were fasted overnight and then anesthetized with intraperitoneal pentobarbital, 50-60 mg/kg. Tracheostomy was performed and the animals were ventilated mechanically. A cannula was inserted into a femoral vein for injection of angtiotensin I, and a second cannula was inserted into a common carotid artery for direct measurement of arterial blood pressure. […]

For `C[C@H](CSC(=O)C(Cc1ccccc1)NC(=O)c1ccccc1)C(=O)N1CCC[C@H]1C(=O)O` (stereo partly drawn) [potassium salt of N-alpha[3-(N-alpha-benzoyl-D,L-phenylalanylthio)-2-D-methylpropanoyl]-L-proline], the “Blood Pressure Response to 400 ng/kg of Angiotensin I” value in assay [1] (5 min) is 46 % of Control; in assay [1] (10 min), 37 % of Control; in assay [1] (15 min), 41 % of Control; in assay [1] (20 min) it was 37 % of Control; in assay [1] (30 min) it was 44 % of Control; in assay [1] (40 min), 50 % of Control. For the same molecule, the “Blood Pressure Response to 400 ng/kg of Angiotensin I” value in assay [1] (50 min) is reported as 39 % of Control; in assay [1] (60 min) it was 46 % of Control; in assay [1] (90 min) it was 52 % of Control; in assay [1] (120 min), 59 % of Control.
As to `C[C@H](CSC(=O)C(Cc1ccccc1)NC(=O)c1ccccc1)C(=O)N1CCC[C@H]1C(=O)O` (stereo partly drawn) [sodium salt of N-alpha[3-(N-alpha-benzoyl-D,L-phenylalanylthio)-2-D-methylpropanoyl]-L-proline], the response vs control in vivo at 10 µmol/kg in assay [2] (5 min, 5 min) came to 82%; in assay [2] (10 min, 10 min) it was 33%; in assay [2] (0.25 h, 15 min) it was 24%; in assay [2] (20 min, 20 min), 27%; in assay [2] (0.5 h, 30 min), 27%; in assay [2] (40 min, 40 min) it was 22%. The response vs control in vivo at 10 µmol/kg in assay [2] (50 min, 50 min) amounted to 24%; in assay [2] (1 h, 60 min) it was 27%; in assay [2] (1.5 h, 90 min), 36%; in assay [2] (2 h, 120 min), 44%; in assay [2] (2.5 h, 150 min) it was 62%; in assay [2] (3 h, 180 min), 60%. The response vs control in vivo at 10 µmol/kg worked out at 71% in assay [2] (3.5 h, 210 min) and 73% in assay [2] (4 h, 240 min).
